Results: PubChem BioAssay (NCI)
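GI50 is the concentration that inhibits growth by half. TGI: concentration producing complete growth inhibition.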

Key:
Assay in all cases: inhibition of tumour cell growth, NCI panel, 384-well format; in the data active means GI50 below about 0.43 µM; inactive means the rest
NCI-H522 lung = test system: NCI-H522 lung
UACC-62 melanoma = test system: UACC-62 melanoma
NCI/ADR-RES ovarian = test system: NCI/ADR-RES ovarian
DU-145 prostate = test system: DU-145 prostate
HCT-15 colon = test system: HCT-15 colon
SNB-75 CNS = test system: SNB-75 CNS
HOP-62 NSCLC = test system: HOP-62 NSCLC
SK-MEL-2 melanoma = test system: SK-MEL-2 melanoma
NCI-H460 NSCLC = test system: NCI-H460 NSCLC
ACHN renal = test system: ACHN renal
MDA-MB-435 melanoma = test system: MDA-MB-435 melanoma
A549 NSCLC = test system: A549 NSCLC
OVCAR-4 ovarian = test system: OVCAR-4 ovarian
HL-60(TB) leukemia = test system: HL-60(TB) leukemia
HOP-92 NSCLC = test system: HOP-92 NSCLC
EKVX NSCLC = test system: EKVX NSCLC
SF-295 CNS = test system: SF-295 CNS
SK-MEL-5 melanoma = test system: SK-MEL-5 melanoma
MCF7 breast = test system: MCF7 breast
SK-OV-3 ovarian = test system: SK-OV-3 ovarian
IGROV1 ovarian = test system: IGROV1 ovarian
SK-MEL-28 melanoma = test system: SK-MEL-28 melanoma
SF-268 CNS = test system: SF-268 CNS
MOLT-4 leukemia = test system: MOLT-4 leukemia
UACC-257 melanoma = test system: UACC-257 melanoma
NCI-H23 lung = test system: NCI-H23 lung
CCRF-CEM leukemia = test system: CCRF-CEM leukemia
BT-549 breast = test system: BT-549 breast
PC-3 prostate = test system: PC-3 prostate
M14 melanoma = test system: M14 melanoma
MALME-3M melanoma = test system: MALME-3M melanoma
SR leukemia = test system: SR leukemia
RPMI-8226 leukemia = test system: RPMI-8226 leukemia
OVCAR-3 ovarian = test system: OVCAR-3 ovarian
CAKI-1 renal = test system: CAKI-1 renal
NCI-H226 lung = test system: NCI-H226 lung
TK-10 renal = test system: TK-10 renal
T-47D breast = test system: T-47D breast
786-0 renal = test system: 786-0 renal
HT29 colon = test system: HT29 colon
SNB-19 CNS = test system: SNB-19 CNS
KM12 colon = test system: KM12 colon
OVCAR-5 ovarian = test system: OVCAR-5 ovarian
MDA-MB-468 breast = test system: MDA-MB-468 breast
RXF 393 renal = test system: RXF 393 renal
SF-539 CNS = test system: SF-539 CNS
HS 578T breast = test system: HS 578T breast
HCC-2998 colon = test system: HCC-2998 colon
A498 renal = test system: A498 renal
MDA-MB-231 breast = test system: MDA-MB-231 breast
OVCAR-8 ovarian = test system: OVCAR-8 ovarian
SN12C renal = test system: SN12C renal
COLO 205 colon = test system: COLO 205 colon
SW-620 colon = test system: SW-620 colon
NCI-H322M lung = test system: NCI-H322M lung
U251 glioblastoma = test system: U251 glioblastoma

CC(C)(C)c1ccc(Oc2ccc(N)cn2)cc1
66.2 µM: TGI (RXF 393 renal)
72.9 µM: TGI (MALME-3M melanoma)
57.7 µM: TGI (HT29 colon)
32.8 µM: TGI (SR leukemia)
0.563 µM: TGI (RPMI-8226 leukemia)
85.8 µM: TGI (NCI-H23 lung)
> 100 µM: TGI (UACC-62 melanoma) | TGI (NCI/ADR-RES ovarian) | TGI (DU-145 prostate) | TGI (HCT-15 colon) | TGI (SNB-75 CNS) | TGI (HOP-62 NSCLC) | TGI (SK-MEL-2 melanoma) | TGI (NCI-H460 NSCLC) | TGI (ACHN renal) | TGI (MDA-MB-435 melanoma) | TGI (A549 NSCLC) | TGI (OVCAR-4 ovarian) | TGI (HOP-92 NSCLC) | TGI (EKVX NSCLC) | TGI (SF-295 CNS) | TGI (MCF7 breast) | TGI (SK-OV-3 ovarian) | TGI (IGROV1 ovarian) | TGI (SK-MEL-28 melanoma) | TGI (SF-268 CNS) | TGI (UACC-257 melanoma) | TGI (PC-3 prostate) | TGI (M14 melanoma) | TGI (OVCAR-3 ovarian) | TGI (CAKI-1 renal) | TGI (TK-10 renal) | TGI (T-47D breast) | TGI (786-0 renal) | TGI (SNB-19 CNS) | TGI (KM12 colon) | TGI (OVCAR-5 ovarian) | TGI (SF-539 CNS) | TGI (HS 578T breast) | TGI (A498 renal) | TGI (MDA-MB-231 breast) | TGI (OVCAR-8 ovarian) | TGI (SN12C renal) | TGI (SW-620 colon) | TGI (NCI-H322M lung) | TGI (U251 glioblastoma)
39.9 µM: TGI (NCI-H522 lung)
2.82 µM: TGI (HL-60(TB) leukemia)
65 µM: TGI (BT-549 breast)
52.3 µM: TGI (NCI-H226 lung)
57 µM: TGI (MDA-MB-468 breast)
19.3 µM: TGI (MOLT-4 leukemia)
48.6 µM: TGI (HCC-2998 colon)
inactive: GI50 (NCI-H522 lung) 14.7 µM | GI50 (UACC-62 melanoma) > 100 µM | GI50 (NCI/ADR-RES ovarian) 36.4 µM | GI50 (DU-145 prostate) 64.3 µM | GI50 (HCT-15 colon) 29.4 µM | GI50 (SNB-75 CNS) 22.1 µM | GI50 (HOP-62 NSCLC) 33 µM | GI50 (SK-MEL-2 melanoma) > 100 µM | GI50 (NCI-H460 NSCLC) 32.7 µM | GI50 (ACHN renal) > 100 µM | GI50 (MDA-MB-435 melanoma) 92.2 µM | GI50 (A549 NSCLC) 20.4 µM | GI50 (OVCAR-4 ovarian) 28.1 µM | GI50 (HL-60(TB) leukemia) 0.479 µM | GI50 (HOP-92 NSCLC) 34.8 µM | GI50 (EKVX NSCLC) 44.2 µM | GI50 (SF-295 CNS) > 100 µM | GI50 (SK-MEL-5 melanoma) 22.3 µM | GI50 (MCF7 breast) 74.2 µM | GI50 (SK-OV-3 ovarian) > 100 µM | GI50 (IGROV1 ovarian) 97.3 µM | GI50 (SK-MEL-28 melanoma) > 100 µM | GI50 (SF-268 CNS) 26 µM | GI50 (MOLT-4 leukemia) 4.83 µM | GI50 (UACC-257 melanoma) 36 µM | GI50 (NCI-H23 lung) 29.1 µM | GI50 (BT-549 breast) 12.6 µM | GI50 (PC-3 prostate) 43.5 µM | GI50 (M14 melanoma) > 100 µM | GI50 (MALME-3M melanoma) 26.9 µM | GI50 (SR leukemia) 14.3 µM | GI50 (OVCAR-3 ovarian) 24.9 µM | GI50 (CAKI-1 renal) 24.1 µM | GI50 (NCI-H226 lung) 10.8 µM | GI50 (TK-10 renal) 93 µM | GI50 (T-47D breast) 31.2 µM | GI50 (786-0 renal) 24.7 µM | GI50 (HT29 colon) 24.9 µM | GI50 (SNB-19 CNS) > 100 µM | GI50 (KM12 colon) 44.3 µM | GI50 (OVCAR-5 ovarian) > 100 µM | GI50 (MDA-MB-468 breast) 21 µM | GI50 (RXF 393 renal) 21.8 µM | GI50 (SF-539 CNS) 43.4 µM | GI50 (HS 578T breast) 29.5 µM | GI50 (HCC-2998 colon) 17 µM | GI50 (A498 renal) 46.5 µM | GI50 (MDA-MB-231 breast) 28.4 µM | GI50 (OVCAR-8 ovarian) 52.1 µM | GI50 (SN12C renal) 57.7 µM | GI50 (COLO 205 colon) 38.6 µM | GI50 (SW-620 colon) 85.7 µM | GI50 (NCI-H322M lung) 68.2 µM | GI50 (U251 glioblastoma) 35.8 µM
86.6 µM: TGI (COLO 205 colon)
51.8 µM: TGI (SK-MEL-5 melanoma)
active: GI50 (CCRF-CEM leukemia) 0.302 µM | GI50 (RPMI-8226 leukemia) 0.231 µM
1.24 µM: TGI (CCRF-CEM leukemia)
